The values below come from patent US20240337647A1, “IMPROVED METHODS FOR IDENTIFICATION OF FUNCTIONAL CELL STATES” (priority 2021, published 2024).

pIC50: −log10 of the molar value. Where two headings read alike, the source gives them in different places.

For data set [1], the system named is biomolecular targets known to be associated with common negative side effects of pharmaceuticals in humans. Nature of the data set: In vitro secondary pharmacology panels, all targets of the two panels (31 dose-response + 78 single concentration). The class given is biochemical. The following applies: percentage of targets hit among all targets tested in the two secondary pharmacology panels. On the procedure:
The purpose of this study was to assess the toxicity risk estimation provided by the Cell Health Screen relative to information from panels of in vitro pharmacology assays that were also designed to detect toxicity risk during pharmaceutical development. This study was performed with outside collaborators who have expertise in the use of the in vitro pharmacology assays. These in vitro assay panels detect whether chemical compounds directly interact with biomolecular targets known to be associated with toxic side effects in humans (mostly enzymes, cell surface receptors, and other proteins that participate in signaling pathways) (Pottel et al., 2020). […] As such, the interpretation process is somewhat subjective. In contrast, the Cell Health Screen uses a feature extraction and ML classifier strategy described above, to reduce all cellular phenotypic changes caused by a chemical compound to a single probability value, from 0 to 1. This is a quantitative toxicity risk estimation relative to a training set of compounds used to train the ML classifier. Therefore, comparing results from the Cell Health Screen to the in vitro pharmacology panels is a matter of comparing the trend in ML classifier probability values, across all 40 excipients, with their relative degrees of promiscuity and target interaction potency observed in the in vitro pharmacology panels.
(§1) For a detailed description of our collaborators' in vitro pharmacology assay panels, please see the publication by Pottel et al. (Pottel et al., 2020). Briefly, each in vitro assay focuses on one biomolecular target known to be associated with common negative side effects of pharmaceuticals in humans. These targets are generally enzymes, cell surface receptors, or other proteins that mediate cell signal transduction. In one assay panel, chemical compound interaction is assessed for 31 biomolecular targets in a dose-response fashion, which assesses compound-target interaction strength expressed as an IC50 and an activity range (unless no interaction happens).
Here we present two summarized versions of the study results. […] For the biological endpoints, the abbreviation key is as follows: CM=cell morphology, CMI=cell membrane integrity, ROS=reactive oxygen species, GTH=glutathione, NMI1=nuclear membrane integrity 1, CC=cell cycle, NMI2=nuclear membrane integrity 2, MMP=mitochondrial membrane potential. […] This is the percentage of all biomolecular targets for which an effect was observed, for each excipient. The THR value serves as an expression of an excipient's promiscuity with regard to binding biomolecular targets known to associate with toxic side effects in humans.

A further data set deals with 31 biomolecular targets. Briefly: In vitro pharmacology panel of 31 biomolecular targets, dose-response. The conditions noted are these: for pIC50: read-out: Avg potency. The class given is biochemical. On the procedure:
as §1
These last two features are derived from the first panel of 31 biomolecular targets, which are assayed using a concentration series of each excipient to produce a dose-response curve.

The next data set has as its system HL60 cells. Nature of the data set: AsedaSciences SYSTEMETRIC Cell Health Screen (multiparametric acute cell stress assay, flow cytometry, ML classifier). The conditions noted are these: probability (0 to 1) of assignment to the 'yes' high cell stress class; HL60, 4 hours, 5 nM-100 μM. The source says: The Cell Health Screen is a multiparametric acute cell stress assay, using a panel of fluorescent physiological reporting dyes, on an automated flow cytometry platform. Rather than simply producing dose-response curves for all individual biological readouts, features are generated by computing custom-defined distance functions between test and control wells. All test compounds are represented as feature vectors, after which the analysis algorithm employs a logistic regression model to classify test compounds relative to a training set. This machine learning (ML) approach integrates all measured readouts into a single predictive statistical model. […] This training set empirically covers the full range of possible phenotypes in the Cell Health Screen, from no-response to acute stress, with sufficient representation across the spectrum. Training set compounds were assigned to binary classes (“yes”=expectation of high cell stress or “positive” phenotype; “no”=no expectation of positive phenotype). This externally established ground-truth was based upon manually curated information from research literature and, where applicable, clinical trial results and commercial/regulatory histories.
For an unknown test compound, the ML classifier uses all the FC parameter features describing compound response, simultaneously, to predict the final assignment. This is achieved by calculating the probability of assigning that compound's screen phenotype to the “yes” class defined by the training set. By specifying the problem as a classification challenge, the data analysis pipeline assures that any apparent lack of coordinated change among biological readouts presents no interpretation challenge. All phenotypic data are treated simply as input features to a statistical model. In contrast, many conventional flow cytometry assays require strict mechanistic interpretation of every measured biological readout. often resulting in conflicting conclusions (e.g. if reactive oxygen species increase, but glutathione is unaffected, which should be “believed”?). The final probability score, or Cell Health Index, is a quantitative assessment of a multiparametric phenotype's similarity to a diverse set of known good and bad actors. Finally, choosing HL60 as our reporter cell line means that the screen is explicitly designed not to detect instances in which a parent compound only causes cellular toxicity via metabolites.
In a 384-well platform. HL60 cells are exposed to a 10-step, 3× dilution series of each test compound (5 nM-100 μM) for 4 hours at 37° C. with 5% CO2. Each dilution series is screened in duplicate, occupying a total of 20 wells, allowing 16 test compounds to be assayed on each plate. Each row contains one positive and one negative control well, for a total of 16 matched control pairs on each assay plate. Compound formatting, cell deposition, and dye application are performed robotically, so that final assay conditions comprise 100,000 cells in a 40 μl volume. After compound exposure, live cells are rapidly stained with a panel of fluorescent dyes that report physiological signatures of both mitochondrial dysfunction and gross cell stress. Fluorescence data are collected using automated flow cytometry with no gating. […] Well-specific flow cytometry data files, with an accompanying map of well contents, are moved to cloud infrastructure where the automated algorithm for quality control and ML classification is triggered. […]
(In general: In flow cytometry, cells or beads pass a laser one at a time.)

The mark [2] stands for this setting: average concentration of the IC50 values from dose-response results, panel of 31 targets.
Where [3] appears, read: first panel of 31 biomolecular targets, concentration series.

On to `CCCOC(=O)c1ccc(O)cc1` [Propylparaben], for which the “Overall target hit rate” value in data set [1] turned out to be 3%. Moreover, the pIC50 in the data set with 31 biomolecular targets (setting [2]) was 4.71. For the same compound, the Activity range in the data set on 31 biomolecular targets (setting [3]) lay within 11 to 24 µM.
Consider `C[CH2][Hg][S]c1ccccc1C(=O)[O-].[Na+]` [Thimerosal], for which the “Overall target hit rate” value in data set [1] is recorded as 17%. Further, in the data set with 31 biomolecular targets, the Activity range lay in the range of 0.32 to 30 µM and the pIC50 was 4.82. Besides, the “CHI score (Cell Health Index)” value in the data set with HL60 cells was found to be 0.936.
For the compound `CCCOC(=O)c1cc(O)c(O)c(O)c1` [Propyl gallate], the “Overall target hit rate” value in data set [1] turned out to be 3%. In addition, the pIC50 in the data set on 31 biomolecular targets (setting [2]) was 5.14. Moreover, in the data set with 31 biomolecular targets (setting [3]), the Activity range is 0.015 to 7.2 µM.
In the case of `O=C([O-])c1c(Cl)c(Cl)c(Cl)c(Cl)c1-c1c2cc(Br)c(=O)c(Br)c-2oc2c(Br)c([O-])c(Br)cc12.[Na+].[Na+]` [D&C Red #28, Phloxine B], the “Overall target hit rate” value in data set [1] came out at 55%. The compound also registered an Activity range with 31 biomolecular targets (setting [3]) of 0.13 to 28 µM. Further, in the data set on 31 biomolecular targets, the pIC50 is 5.00. The “CHI score (Cell Health Index)” value in the data set with HL60 cells stood at 0.637.
Consider `CN(C)c1ccc2nc3ccc(=[N+](C)C)cc-3sc2c1` [Methylene blue hydrate], for which the “Overall target hit rate” value in data set [1] is recorded as 48%. In the data set on 31 biomolecular targets (setting [2]), the pIC50 is 5.19. Also, the Activity range in the data set on 31 biomolecular targets (setting [3]) was in the range of 0.04 to 24 µM.
With `CC(=O)[O-].[Hg+][c]1ccccc1` [Phenylmercuric acetate], the “Overall target hit rate” value in data set [1] worked out at 58%. Besides, in the data set with 31 biomolecular targets, the Activity range was in the range of 0.02 to 22 µM and the pIC50 was 5.30. For the same compound, the “CHI score (Cell Health Index)” value in the data set with HL60 cells is listed as 0.955.
Consider `O=C1OC2(c3ccccc31)c1cc(I)c(O)c(I)c1Oc1c2cc(I)c(O)c1I` [FD&C Red #3, Erythrosine extra bluish], for which the “Overall target hit rate” value in data set [1] is recorded as 48%. Further, the pIC50 with 31 biomolecular targets (setting [2]) is 5.24. The same compound showed an Activity range with 31 biomolecular targets (setting [3]) of 0.09 to 25 µM.
Turning to `Cc1cc(O)cc(C)c1Cl` [Chloroxylenol, 4-chloro-3,5-dimethylphenol], the “Overall target hit rate” value in data set [1] is recorded as 6%. In addition, in the data set on 31 biomolecular targets (setting [2]), the pIC50 was 4.92. The compound also came in with an Activity range with 31 biomolecular targets (setting [3]) of 10 to 14 µM. Further, the “CHI score (Cell Health Index)” value in the data set with HL60 cells turned out to be 0.349.
For `CC(C)(C)CC(C)(C)c1ccc(OCCOCC[N+](C)(C)Cc2ccccc2)cc1` [Benzethonium chloride], the “Overall target hit rate” value in data set [1] is on record as 51%.
Consider Polysorbate 80, for which the “Overall target hit rate” value in data set [1] worked out at 13%. In the data set with 31 biomolecular targets (setting [3]), this compound displayed an Activity range of 1.0 to 21 µM. For the same compound, in the data set with 31 biomolecular targets, the pIC50 was 4.97. Moreover, in the data set on HL60 cells, the “CHI score (Cell Health Index)” value is 0.422.
